In article PMC9295122, “Sialic Acid Derivatives Inhibit SiaT Transporters and Delay Bacterial Growth” (ACS Chemical Biology, 2022):

Legend:
S. aureus COL = assay: Growth in carbon-limited MM with inhibitor only, S. aureus; assay type: cell-based, Staphylococcus aureus; conditions: MM with casamino acids, compound 0.5 mM
Procedure: (§1) We first addressed whether these bacteria were able to catabolize the inhibitors and potentially use them as a carbon source for growth. Each strain was grown in carbon-limited defined minimal media (MM), without any carbon source other than sodium citrate for P. mirabilis and casamino acids for S. aureus, and supplemented with 3e and 3f. […] With these promising results, bacterial growth assays were performed in MM supplemented with Neu5Ac at a concentration of 3.2 mM and with 0.5 mM of compounds 3e and 3f (Figure 6a,b). The lag phase duration was determined as the time for the initial population density to increase twofold (see the horizontal dashed lines in Figure 6a,b). The effects were significant in the case of S. aureus, where a delayed growth of 4.4 and 9.4 h (P < 0.001) for compounds 3e and 3f, respectively, was observed. In the case of P. mirabilis, compound 3e indicated a delay in growth (3 h, P = 0.06), while no effect was recorded for compound 3f.
Figure S4. S. aureus COL (A) and P. mirabilis HI4320 (B) grown in defined carbon-limited minimal media (dotted line), with the addition of compound 3e (0.5 mM, solid line) or compound 3f (0.5 mM, dashed line). Average values of two biological replicates (n=2) each including two technical replicates are presented.
(1 picture or pasted object on this page, not shown here)

S. aureus strain COL = assay: Bacterial growth assay in MM with Neu5Ac, S. aureus; assay type: cell-based, Staphylococcus aureus; conditions: MM + Neu5Ac 3.2 mM, compound 0.5 mM, P < 0.001
Procedure: (§2) To investigate the efficacy of compounds 3e and 3f in inhibiting the uptake of Neu5Ac, bacterial growth assays were performed on a uropathogenic P. mirabilis strain HI4320 and a clinical HA-MRSA isolate S. aureus strain COL. The goal was to verify that compounds 3e and 3f alter bacterial growth when grown on Neu5Ac as an additional carbon source. Growth alteration would indicate Neu5Ac uptake impairment, thus validating our approach.
as §1, with “Figure 6a,b). […] In the” for “Figure 6a,b). The effects were significant in the case of S. aureus, where a delayed growth of 4.4 and 9.4 h (P < 0.001) for compounds 3e and 3f, respectively, was observed. In the”, “compound 3f. […]” for “compound 3f.”

[1] = tested on: P. mirabilis strain HI4320; assay: Bacterial growth assay in MM with Neu5Ac, P. mirabilis; assay type: cell-based, Proteus mirabilis; conditions: P. mirabilis HI4320, MM + Neu5Ac 3.2 mM, compound 0.5 mM
Procedure: as §2
as §1, with “Figure 6a,b). […] In the” for “Figure 6a,b). The effects were significant in the case of S. aureus, where a delayed growth of 4.4 and 9.4 h (P < 0.001) for compounds 3e and 3f, respectively, was observed. In the”, “compound 3f. […]” for “compound 3f.”

| SMILES | ability to catabolize compound (growth vs MM only) (S. aureus COL) | delayed growth (lag phase) (S. aureus strain COL) [h] | delay in growth (lag phase) [1] |
| --- | --- | --- | --- |
| CC(=O)NC1C(OCc2cc(F)cc(F)c2)CC(O)(C(=O)O)OC1C(O)C(O)CO (stereo not drawn) [Compound 3e] | no ability to catabolize | 4.4 | 3 h |
| CC(=O)NC1C(OCc2cc(Br)cc(Br)c2)CC(O)(C(=O)O)OC1C(O)C(O)CO (stereo not drawn) [Compound 3f] | no ability to catabolize | 9.4 | no effect |
